Among the test systems are A498; A549; ACHN; CAKI-1; COLO 205; EKVX; HCC 2998; IGROV-1; MDA-MB-435; MOLT-4; NCI-H23; NCI/ADR-RES; OVCAR-3; OVCAR-5; PC-3; SF-268; SK-MEL-2; SW-620; UACC-62; HOP-92.
Assay in all cases: NCI-60 cell line screen, 48 h

SMILES strings stand for the structures.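 Five compound concentrations were applied to cells in 96-well plates for 48 hours; endpoints were derived by simple linear interpolation of the resulting dose-response curve. At the GI50, growth is halved.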 Calls of active or inactive are those of the source. No stated cut-off is given here; in the data, active = GI50 up to about 1.1 µM and inactive = higher.

On to `CN1CCN(c2ccc3nc(C4=C(O)C(=O)c5c(nc(CCl)n5C)C4=O)[nH]c3n2)CC1`, for which the GI50 was 11.5 µM (inactive) in the experiment with A498; 30 µM (inactive) with A549; 10.3 µM (inactive) with ACHN; 13.5 µM (inactive) with CAKI-1; 10.3 µM (inactive) in the experiment with COLO 205; 21.7 µM (inactive) in the experiment with EKVX. Moreover, the GI50 is 5.89 µM (inactive) in the experiment with HCC 2998; 8.38 µM (inactive) in the experiment on IGROV-1; 9.86 µM (inactive) in the experiment on MDA-MB-435; 21.8 µM (inactive) in the experiment on MOLT-4; 11.5 µM (inactive) with NCI-H23; > 50 µM (inactive) with NCI/ADR-RES. For the same compound, the GI50 was 10.4 µM (inactive) in the experiment on OVCAR-3; 14.2 µM (inactive) in the experiment on OVCAR-5; 16.9 µM (inactive) in the experiment with PC-3; 14.9 µM (inactive) with SF-268; 10 µM (inactive) with SK-MEL-2; 20 µM (inactive) in the experiment on SW-620. For the same compound, in the experiment on UACC-62, the GI50 was 9.89 µM (inactive).
Take `Cc1csc(NNC(N)=O)n1`: the GI50 in the experiment on A549, with ACHN, in the experiment with CAKI-1, in the experiment with COLO 205, in the experiment on EKVX and in the experiment on HCC 2998 was > 100 µM (inactive) throughout. Also, the GI50 with HOP-92, in the experiment on IGROV-1, in the experiment on MDA-MB-435, in the experiment on MOLT-4, in the experiment on NCI-H23 and in the experiment on NCI/ADR-RES was > 100 µM (inactive) throughout. In addition, the GI50 with OVCAR-3, in the experiment with OVCAR-5, in the experiment with PC-3, in the experiment with SF-268, in the experiment on SK-MEL-2 and in the experiment with SW-620 was > 100 µM (inactive) each time. Moreover, the GI50 in the experiment with UACC-62 is > 100 µM (inactive).
`COc1ccc(N2C(=O)C3CC4=CC(=O)C[C@H]4[C@H]32)cc1` (stereo not given in full): the GI50 in the experiment on A498 was > 100 µM (inactive); in the experiment with A549, > 100 µM (inactive); with ACHN it was 53.7 µM (inactive); in the experiment on CAKI-1, 23.4 µM (inactive); in the experiment with COLO 205, 52.5 µM (inactive); in the experiment with HCC 2998, 45.1 µM (inactive). Moreover, the GI50 with MDA-MB-435 is 22.9 µM (inactive); in the experiment on MOLT-4, > 100 µM (inactive); with NCI-H23, > 100 µM (inactive); in the experiment with NCI/ADR-RES it was 44.1 µM (inactive); with OVCAR-3, 57.7 µM (inactive); with OVCAR-5 it was 88.1 µM (inactive). The GI50 was 28.4 µM (inactive) in the experiment on PC-3; > 100 µM (inactive) in the experiment with SF-268; > 100 µM (inactive) in the experiment on SK-MEL-2; 66.1 µM (inactive) in the experiment on SW-620; 45.2 µM (inactive) in the experiment with UACC-62.
For `COc1ccc2c(c1)CN1C(=N2)CSC1c1ccccc1Cl` (stereo not given), the GI50 was 25.7 µM (inactive) with A549; 17.6 µM (inactive) in the experiment on ACHN; 29.1 µM (inactive) in the experiment with CAKI-1; 12.8 µM (inactive) in the experiment with COLO 205; 16.6 µM (inactive) in the experiment on EKVX; 14.4 µM (inactive) with HCC 2998. In addition, the GI50 is 11.3 µM (inactive) with HOP-92; 14.9 µM (inactive) with IGROV-1; 18.8 µM (inactive) with MDA-MB-435; 0.54 µM (active) in the experiment on MOLT-4; 1.66 µM (inactive) in the experiment on NCI-H23; 10.1 µM (inactive) with NCI/ADR-RES. In addition, the GI50 is 18.5 µM (inactive) with OVCAR-5; 16.3 µM (inactive) in the experiment with PC-3; 24 µM (inactive) in the experiment on SF-268; 17.7 µM (inactive) in the experiment on SK-MEL-2; 17.4 µM (inactive) with SW-620; 17.6 µM (inactive) in the experiment with UACC-62.
As to `C[C@H]1S[C@H](c2c(F)cccc2F)n2c1nc1ccccc12`, the GI50 in the experiment with A549 was 47.1 µM (inactive); in the experiment with ACHN, 55.1 µM (inactive); in the experiment on CAKI-1 it was 74 µM (inactive); in the experiment with COLO 205, 37 µM (inactive); in the experiment on EKVX, 66.2 µM (inactive); in the experiment on HCC 2998, 64.7 µM (inactive). In addition, the GI50 is > 100 µM (inactive) in the experiment on IGROV-1; 34 µM (inactive) with MDA-MB-435; 40.6 µM (inactive) in the experiment on MOLT-4; 34.8 µM (inactive) with NCI-H23; 44.2 µM (inactive) in the experiment with NCI/ADR-RES; 24.2 µM (inactive) in the experiment on OVCAR-3. Further, the GI50 in the experiment on OVCAR-5 was 66.8 µM (inactive); in the experiment with PC-3, 33.7 µM (inactive); in the experiment with SF-268 it was 60.5 µM (inactive); in the experiment with SK-MEL-2, 15.1 µM (inactive); in the experiment with SW-620, 88.1 µM (inactive); with UACC-62, 63.1 µM (inactive).
Take `O=C1CSC2=NC3=C(CSC/C3=C\c3ccccc3)C(c3ccccc3)N12` (stereo not given): the GI50 in the experiment with A549 was 50.6 µM (inactive); in the experiment with ACHN it was 57.5 µM (inactive); in the experiment on COLO 205 it was > 100 µM (inactive); in the experiment on EKVX, > 100 µM (inactive); in the experiment with HCC 2998, > 100 µM (inactive); in the experiment with HOP-92, 46 µM (inactive). Moreover, the GI50 in the experiment on IGROV-1 was > 100 µM (inactive); in the experiment with MDA-MB-435, 65.5 µM (inactive); in the experiment on MOLT-4, 53.5 µM (inactive); with NCI-H23 it was 62.1 µM (inactive); with NCI/ADR-RES it was > 100 µM (inactive); in the experiment on OVCAR-3, 88.9 µM (inactive). Also, the GI50 in the experiment with OVCAR-5 is > 100 µM (inactive); in the experiment with PC-3, 28.1 µM (inactive); in the experiment with SF-268, > 100 µM (inactive); in the experiment with SK-MEL-2 it was > 100 µM (inactive); with SW-620 it was 84.9 µM (inactive); in the experiment on UACC-62, > 100 µM (inactive).
Consider `C[C@]12CC[C@H](O)CC1=CC[C@@H]1[C@@H]2CC[C@]2(C)/C(=N/OCCN3CCCC3)CC[C@@H]12`, for which the GI50 with A498 is 16 µM (inactive); in the experiment on ACHN it was 25.5 µM (inactive); in the experiment with CAKI-1, 20.9 µM (inactive); with COLO 205, 16 µM (inactive); in the experiment on EKVX, 10.8 µM (inactive); in the experiment with HCC 2998 it was 22.3 µM (inactive). Besides, the GI50 is 16.2 µM (inactive) in the experiment with IGROV-1; 15.8 µM (inactive) with MDA-MB-435; 14.1 µM (inactive) in the experiment on MOLT-4; 14.1 µM (inactive) in the experiment on NCI-H23; 18.2 µM (inactive) with NCI/ADR-RES; 16.5 µM (inactive) with OVCAR-3. For the same compound, the GI50 with OVCAR-5 was 28.2 µM (inactive); with PC-3, 17.8 µM (inactive); with SF-268, 53.2 µM (inactive); in the experiment on SK-MEL-2, 21 µM (inactive); in the experiment on SW-620, 16.4 µM (inactive); with UACC-62, 15.5 µM (inactive).
As to `N#Cc1nc(CCc2nc(C#N)c(N)o2)oc1N`, the GI50 in the experiment with A549, in the experiment on ACHN, with CAKI-1, with COLO 205, with EKVX and in the experiment with HCC 2998 was > 10 µM (inactive) throughout. Besides, the GI50 in the experiment on HOP-92, in the experiment on IGROV-1, in the experiment on MDA-MB-435, with MOLT-4, in the experiment with NCI-H23 and in the experiment on NCI/ADR-RES was > 10 µM (inactive) each time. Moreover, the GI50 with OVCAR-5, in the experiment with PC-3, in the experiment on SF-268, in the experiment on SW-620 and with UACC-62 was > 10 µM (inactive) throughout.
For the compound `COc1ccc(/N=N/c2c(-c3c(OC)cc4occc4c3OC)[nH]c(=O)c(C#N)c2C)cc1`, the GI50 in the experiment on A549, with ACHN, in the experiment with CAKI-1, with COLO 205, with EKVX and with HCC 2998 was > 100 µM (inactive) in each case. Moreover, the GI50 was > 100 µM (inactive) with HOP-92; 76.2 µM (inactive) in the experiment on IGROV-1; > 100 µM (inactive) with MDA-MB-435; > 100 µM (inactive) in the experiment on MOLT-4; > 100 µM (inactive) in the experiment with NCI-H23; > 100 µM (inactive) in the experiment on NCI/ADR-RES. For the same compound, the GI50 in the experiment on OVCAR-3, in the experiment with OVCAR-5, in the experiment on PC-3, in the experiment on SF-268, in the experiment on SK-MEL-2 and in the experiment with SW-620 was > 100 µM (inactive) in each case. In the experiment on UACC-62, the GI50 was > 100 µM (inactive).
Take `O=C(CNS(=O)(=O)Cc1ccccc1)NNc1ccccc1`: the GI50 with A549 was > 100 µM (inactive); in the experiment on ACHN, > 100 µM (inactive); in the experiment on CAKI-1 it was 5.6 µM (inactive); with COLO 205, 3.23 µM (inactive); with EKVX it was > 69.5 µM (inactive); with HCC 2998, > 100 µM (inactive). Moreover, the GI50 was > 100 µM (inactive) in the experiment on HOP-92; 72.8 µM (inactive) in the experiment with IGROV-1; 6.95 µM (inactive) with MDA-MB-435; > 100 µM (inactive) in the experiment on MOLT-4; > 100 µM (inactive) in the experiment with NCI-H23; > 100 µM (inactive) in the experiment with NCI/ADR-RES. Further, the GI50 in the experiment with OVCAR-3 is 49.4 µM (inactive); with OVCAR-5 it was > 100 µM (inactive); with PC-3 it was > 100 µM (inactive); in the experiment with SF-268 it was > 100 µM (inactive); in the experiment on SK-MEL-2 it was > 30 µM (inactive); with SW-620, 8.05 µM (inactive). For the same compound, in the experiment on UACC-62, the GI50 is 1.12 µM (active).
In the case of `COc1ccc(/C=N/n2c(-c3ccccc3)n[nH]c2=O)cc1`, the GI50 in the experiment on A498 was 25.3 µM (inactive); in the experiment with A549, 95.1 µM (inactive); in the experiment with ACHN it was > 100 µM (inactive); in the experiment with CAKI-1 it was > 100 µM (inactive); in the experiment with COLO 205, > 100 µM (inactive); with EKVX, > 100 µM (inactive). Also, the GI50 in the experiment with HCC 2998 was > 100 µM (inactive); in the experiment with MDA-MB-435, > 100 µM (inactive); in the experiment with MOLT-4, 46.9 µM (inactive); with NCI-H23 it was > 100 µM (inactive); with NCI/ADR-RES, > 100 µM (inactive); with OVCAR-3 it was > 100 µM (inactive). Moreover, the GI50 with OVCAR-5, with PC-3, in the experiment with SF-268, in the experiment with SK-MEL-2, in the experiment with SW-620 and in the experiment with UACC-62 was > 100 µM (inactive) throughout.

(Values after ChEMBL document CHEMBL1201862, “PubChem BioAssay data set” (2004).)
